Type in all cases: functional
Test [1] deals with Rattus norvegicus. Put plainly: Activity tested for the content of calcium in serum of rat when 18 ug/kg of compound was administered intramuscularly when compared to prednisone.
Test [2] has as its system Rattus norvegicus. The experiment in a line: Activity of alkaline phosphatase (ALP) tested in serum of rat when 18 ug/kg of compound was administered intramuscularly.
Test [3] is filed under the species Rattus norvegicus. Put plainly: Percentage content of calcium in femur tested in the compound using male ICR rats when compared to vehicle.
The species entered for test [4] is Rattus norvegicus. The experiment in a line: Percentage content of phosphor in femur tested in the compound using male ICR rats.
For test [5], the system named is Rattus norvegicus. Put plainly: Weight of rat femur ash tested after intramuscular administration of 18 ug/kg of compound when compared to vehicle.
In test [6] the test system is Rattus norvegicus. The experiment in a line: Weight of rat femur tested after intramuscular administration of 18 ug/kg of compound when compared to vehicle.
The subject of test [7] is Rattus norvegicus. The experiment in a line: Weight of rat body tested after intramuscular administration of 18 ug/kg of compound when compared to prednisone.
Test [8] deals with Rattus norvegicus. The experiment in a line: Activity tested for the content of calcium in serum of rat when 18 ug/kg of compound was administered intramuscularly when compared to vehicle.
Test [9] concerns Rattus norvegicus. Put plainly: Weight of rat body tested after intramuscular administration of 18 ug/kg of compound when compared to vehicle.

Regarding `CC(C)C[C@H](NC(=O)[C@H](Cc1ccccc1)NC(=O)CNC(=O)CNC(=O)[C@H](Cc1ccc(O)cc1)NC(=O)CCC(=O)O[C@H]1CC[C@H]2[C@@H]3CCc4cc(O)ccc4[C@H]3CC[C@]12C)C(N)=O`, the Ca2+ with Rattus norvegicus [1] was 1.92 mM.

For the molecule `C[C@]12CC[C@@H]3c4ccc(O)cc4CC[C@H]3[C@@H]1CCC2O` (single isomer, unassigned) [ESTRADIOL], the Ca2+ was 2.13 mM in the test on Rattus norvegicus [1] and 42.11% in the test filed under Rattus norvegicus [3]. Besides, in the test on Rattus norvegicus [2], the Activity is recorded as 44.1. For the same molecule, the Phosphor in the test filed under Rattus norvegicus [4] was found to be 21.85%. For the same molecule, the Weight was determined as 22.82 mg in the test on Rattus norvegicus [5], 35.09 mg in the test on Rattus norvegicus [6] and 35.39 g in the test on Rattus norvegicus [7].

Consider `C[C@]12CC[C@@H]3c4ccc(O)cc4CCC3[C@@H]1CCC2=O` (single isomer, unassigned) [ESTRONE], for which the Activity in the test with Rattus norvegicus [2] amounted to 45.84. Also, the results for the Ca2+ in the test on Rattus norvegicus [8] and in the test filed under Rattus norvegicus [3] were 2.28 mM and 40.83%, respectively. In the test listed under Rattus norvegicus [4], the Phosphor was found to be 22.02%. Besides, the Weight with Rattus norvegicus [5] came to 21.69 mg; in the test with Rattus norvegicus [6] it was 33.93 mg; in the test with Rattus norvegicus [9], 33.62 g.

As to `CC(C)C[C@H](NC(=O)[C@H](Cc1ccccc1)NC(=O)CNC(=O)CNC(=O)[C@@H](N)Cc1ccc(O)cc1)C(=O)O` [ENKEPHALIN], in the test on Rattus norvegicus [2], the Activity was 37.7. In the test filed under Rattus norvegicus [4], the Phosphor is listed as 22.27%. Further, the figures for the Weight in the test on Rattus norvegicus [5] and in the test on Rattus norvegicus [9] were 21.74 mg and 33.29 g, respectively.

In the test on Rattus norvegicus [2], `C[C@]12C=CC(=O)C=C1CC[C@@H]1[C@@H]2C(=O)C[C@@]2(C)[C@H]1CC[C@]2(O)C(=O)CO` [PREDNISONE] registered an Activity of 48.7. For the same molecule, the Ca2+ with Rattus norvegicus [8] was found to be 2.42 mM; in the test listed under Rattus norvegicus [3], 39.54%. The molecule further gave a Phosphor in the test listed under Rattus norvegicus [4] of 20.87%. Besides, the Weight is listed as 21.26 mg in the test with Rattus norvegicus [5], 33.39 mg in the test with Rattus norvegicus [6] and 31.89 g in the test with Rattus norvegicus [9].

For the molecule `CC(C)C[C@H](NC(=O)[C@H](Cc1ccccc1)NC(=O)CNC(=O)CNC(=O)[C@@H](N)Cc1ccc(O)cc1)C(N)=O` [[LEU5]ENKEPHALIN], the Ca2+ in the test on Rattus norvegicus [1] was found to be 2.01 mM. The molecule further had an Activity with Rattus norvegicus [2] of 34.22. Also, the Phosphor in the test listed under Rattus norvegicus [4] was found to be 22.35%. In addition, the Weight stood at 22.8 mg in the test with Rattus norvegicus [5] and 34.16 g in the test with Rattus norvegicus [9].

The values are drawn from ChEMBL document CHEMBL1144960, “Studies on the synthesis and anti-Osteoporosis of estrogen-GHRPs linkers” (2003).
